Values quoted from earlier work as cited in patent US20090238905A1, “INFLAMMATION REDUCING ACTION OF SYNERGISTIC MIXTURES OF BISABOLOL AND GINGER EXTRACTS” (SYMRISE, Inc., priority 2008, published 2009).

For CC(C)=CCC[C@](C)(O)C1CC=C(C)CC1 (stereo partly shown) [Bisabolol, bisabolol], the PGE2 inhibition (PGE2) is listed as “not as a PGE2 inhibitor”, the LTB4 inhibition (LTB4) is listed as “very effective” and the IL-1α inhibition (IL-1α) is listed as “very effective”.

In the case of CCCCC[C@H](O)CC(=O)CCc1ccc(O)c(OC)c1 [Gingerol], the “inhibition of PGE2 production” value (HL-60 cells) is given as “inhibit PGE2 production”, the “inhibition of activation of TNF-α” value (TNF-α) is given as “inhibit activation of TNF-α” and the IL-1α inhibition (IL-1α) is given as “did not have an effect”. The “inhibition of COX-2 expression” value (COX-2) was “inhibit”.
